Where two headings read alike, the source gives them in different places. Where no end group is shown, it is not given here.

Data set [1] can be described thus: Zinc solubility of peptide-Zn complexes during simulated gastrointestinal digestion. The settings on record: simulated intestinal digestion, from 120 to 240 min; p < 0.05. In kind it is in vitro ADME. Here is the method:
Simultaneously, 5 mg of the DOPKGH peptide-Zn complexes was mixed with 50 mL of simulated gastric digested mucus (pH 2.00 ± 0.10) ([Sun et al., 2021]). After shaking at 37°C and 135 rpm for 90 min, Na2HPO4 (0.5 mol/L) was added and the mixture was quickly stirred until the pH of the digest increased to 6.80 ± 0.10. […] The stability of DOPKGH peptide-Zn complexes was expressed as the residual zinc concentration after digestion and as a percentage of the zinc concentration before digestion.

Data set [2] addresses T1, ACE (Oryctolagus cuniculus, UniProt P12822).
T1 construct: purchased Sigma (St. Louis, MO, United States)
T1 sequence (P12822 34-1310): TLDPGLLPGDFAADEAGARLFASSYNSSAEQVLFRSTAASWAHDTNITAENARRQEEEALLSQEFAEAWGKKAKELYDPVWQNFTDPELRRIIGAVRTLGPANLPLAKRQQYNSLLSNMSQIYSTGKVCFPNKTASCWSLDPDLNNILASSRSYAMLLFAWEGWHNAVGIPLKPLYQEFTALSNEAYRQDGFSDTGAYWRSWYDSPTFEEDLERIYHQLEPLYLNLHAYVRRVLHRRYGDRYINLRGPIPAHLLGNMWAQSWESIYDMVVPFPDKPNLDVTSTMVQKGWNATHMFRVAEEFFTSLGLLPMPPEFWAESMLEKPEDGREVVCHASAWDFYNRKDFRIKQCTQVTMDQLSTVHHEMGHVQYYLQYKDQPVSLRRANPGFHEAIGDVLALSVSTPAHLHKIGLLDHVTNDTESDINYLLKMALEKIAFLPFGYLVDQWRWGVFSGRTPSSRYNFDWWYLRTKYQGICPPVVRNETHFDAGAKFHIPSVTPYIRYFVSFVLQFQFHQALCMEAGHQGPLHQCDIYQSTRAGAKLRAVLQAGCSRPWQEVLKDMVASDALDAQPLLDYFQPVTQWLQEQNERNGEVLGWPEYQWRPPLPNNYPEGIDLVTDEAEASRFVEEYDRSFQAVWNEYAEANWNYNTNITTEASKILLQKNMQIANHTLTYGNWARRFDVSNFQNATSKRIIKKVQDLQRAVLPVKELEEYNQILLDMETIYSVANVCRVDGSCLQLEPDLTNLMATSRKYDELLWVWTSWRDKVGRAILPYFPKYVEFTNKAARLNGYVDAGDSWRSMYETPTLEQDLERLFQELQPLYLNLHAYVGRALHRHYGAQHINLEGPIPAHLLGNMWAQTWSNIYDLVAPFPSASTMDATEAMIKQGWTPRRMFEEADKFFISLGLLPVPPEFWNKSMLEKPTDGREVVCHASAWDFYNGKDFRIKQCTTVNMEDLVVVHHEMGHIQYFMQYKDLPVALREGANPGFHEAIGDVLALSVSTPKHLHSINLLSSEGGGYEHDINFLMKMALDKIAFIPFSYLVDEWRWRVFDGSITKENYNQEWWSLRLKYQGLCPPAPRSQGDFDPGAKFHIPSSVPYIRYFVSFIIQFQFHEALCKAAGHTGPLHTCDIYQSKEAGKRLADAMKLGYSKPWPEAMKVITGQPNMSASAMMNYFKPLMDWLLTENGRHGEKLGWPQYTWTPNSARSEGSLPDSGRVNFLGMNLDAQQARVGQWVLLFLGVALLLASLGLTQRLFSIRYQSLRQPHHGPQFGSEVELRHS
The experiment in a line: ACE inhibitory activity (HHL substrate, hippuric acid absorbance at 228 nm). In kind it is biochemical. The settings on record: synthesized peptide, untreated; ACE 25 mU, HHL 8.3 mmol/L, 37°C, 60 min, absorbance 228 nm; from regression y = 10.985 ln(x) ‒ 0.8859, R2 = 0.9458; read-out: ACE inhibition capacity (IC50). Here is the method: (§1) ACE inhibitory activity was determined using the procedure described by [Zaharuddin et al. (2022)]. Briefly, ACE (25 mU) was pre-incubated at 37°C for 10 min. Then ACE (75 µL), 225 µL of HHL (8.3 mmol/L), and the peptide solution (75 µL) were mixed and stirred at 75 rpm and 37°C for 60 min. The reaction was stopped by adding 375 µL of HCl (1 mol/L). Afterward 2.1 mL of ethyl acetate was added to extract the hippuric acid produced. The mixture was centrifuged at 14,000 g for 150 s. Subsequently, 1 mL of the upper solution (ethyl acetate extraction) was transferred to a glass test tube and heated at 120°C for 32 min. The tube was cooled to 25°C, deionized water (1 mL) was added, and the absorbance was measured at 228 nm. The control group was subjected to the same procedure, but without samples. The ACE inhibition ability of the samples was defined as the percentage of the difference in absorbance at 228 nm between the sample and control as compared to the absorbance at 228 nm of the control. The concentration of peptides required to inhibit half of the ACE activity was defined as the IC50.

Data set [3] concerns the target T1, ACE. The experiment in a line: Stability of ACE inhibitory activity under simulated gastrointestinal hydrolysis. The data set is classed as in vitro ADME. Here is the method: as §1
The simulation intestinal digest mucus (pH 6.80 ± 0.10) was composited of 6 g bile salt, 0.07 g pancreatin, 12.5 g NaHCO3, and 200 mL ultrapure water. […] The ACE inhibitory activity of the DOPKGH peptide was determined using untreated DOPKGH peptides for comparison.

Data set [4] has as its target T1, ACE. Further details: method as in 2 sources, one per row (each row's own in cited_ref): ref Wang et al., 2021 ||| ref Wei et al., 2022. The settings on record: cited from earlier work.
Data set [5] is described as follows: Zn-chelating ability (4-(2-Pyridinazo)-resorcinol method). In kind it is physicochemical. The settings on record: 350 μg sample, zinc sulfate 0.25 mmol/L, DTT, HEPES-KOH buffer, 37°C, 12 min, PAR method, absorbance 500 nm; mean ± SD, at least three repeats. Here is the method:
DOPKGH peptides (350 μg), 0.5 mL zinc sulfate solution (0.25 mmol/L), 0.5 mL DTT (8 mmol/L), 1 mL HEPES-KOH buffer (100 μmol/L), and 8 mL dH2O were mixed thoroughly ([Li et al., 2023]). After stirring at 175 r/min and 37°C for 12 min, the zinc concentration of the reaction solution was measured using the 4-(2-Pyridinazo)-resorcinol method ([Udechukwu et al., 2018]). The standard regression curve of the zinc concentration (x, μg/mL) with absorbance at 500 nm (y) was y = 0.0901n(x) + 0.1012, and R^2 = 0.9802 ([Li et al., 2023]). The zinc chelation rate was defined as the reduction of zinc ions in the reaction solution per unit mass of sample (mg/g).
Amino acid sequence identification was conducted using a Q Exactive hybrid quadrupole orbitrap mass spectrometer (Thermo Fisher, Bremen, Germany) coupled with Peak-Studio-7.5-De-Novo™ software (Bioinformatics Solutions, Inc., Waterloo, Canada) according to the method described by [Li et al. (2022)]. The DOPKGH sequences were verified by matching with the sequences of Elaeis guineensis recorded in the Biotechnology Information Database (Bethesda, MD, United States). The Zn-chelating ability of the obtained sequences was measured using the 4-(2-Pyridinazo)-resorcinol method ([Udechukwu et al., 2018]). […] In addition, the physicochemical characteristics of the screened DOPKGH sequences were analyzed using the AHTPDB database.

Data set [6] has as its target T1, ACE. The settings on record: Val residue at the N-terminal; peptide from King Bolete mushrooms; ref Kaprasob et al., 2022; cited from earlier work. The source says:
Moreover, Lys or Arg residues in C-terminal tripeptide are instrumental in the ACE-inhibitory ability of peptides ([Urbizo-Reyes et al., 2022]).

For the compound `O=C([O-])[C@H](O)[C@@H](O)[C@H](O)[C@H](O)CO.O=C([O-])[C@H](O)[C@@H](O)[C@H](O)[C@H](O)CO.[Zn+2]` [zinc gluconate, Zinc gluconate], the “Zinc solubility compared with zinc sulfate” value in data set [1] is reported as “higher zinc solubility than that of zinc sulfate”. For EVPQAYIP, the IC50 on ACE [2] is 103 µM; at ACE [3] (simulated gastric digest (pepsin 0.35 mg/mL, pH 2.0) 37°C 80 min, then intestinal digest (pancreatin, bile salt, pH 6.8) 37°C 150 min, regression y = 13.536ln(x) ‒ 17.297, R2 = 0.9528, read-out: IC50 against ACE after gastrointestinal digestion), 144 µM. The “ACE-inhibitory activity retained after gastrointestinal digestion” value at ACE [3] (simulated gastric (pepsin, pH 2.0, 80 min) then intestinal (pancreatin, pH 6.8, 150 min) digestion, 37°C, versus untreated peptide) is reported as 71.23%.

Take GNPLSP: the IC50 with ACE [4] (peptide derived from Arthrospira platensis, ref Wang et al., 2021, read-out: ACE inhibition IC50) was 264 µM. As for PHQPLPP, the “ACE inhibition IC50” value with ACE [4] (peptide identified in rubing cheese, ref Wei et al., 2022) is 821 mg/L. In the case of “QRLERCK [Gln-Arg-Leu-Asp-Arg-Cys-Lys, oligopeptide identified in defatted oil palm kernel globulin hydrolysates]”, the Zinc chelating capacity in data set [5] is 17.30 ± 1.46^g mg/g. With “VSWNVLQEP [literature peptide identified in King Bolete mushrooms]”, the “Binding energy with ACE” value on ACE [6] is -38.1 kJ/mol.

Values taken from PMC10433220, “Oil palm kernel globulin antihypertensive peptides: isolation and characterization, ACE inhibition mechanisms, zinc-chelating activity, security and stability” (Frontiers in Pharmacology, 2023).
